Test results taken from patent US8952157B2, “Apoptosis-inducing agents for the treatment of cancer and immune and autoimmune diseases” (AbbVie Inc., priority 2008, dated 2015).

Target: GST-Bcl-2 (Homo sapiens (Human), UniProt P10415)
Assay: Time Resolved-Fluorescence Resonance Energy Transfer (TR-FRET) Bcl-2 binding assay
Conditions: GST-Bcl-2 1 nM, F-Bak peptide probe 100 nM, Tb-anti-GST antibody 1 nM; Ki by Wang's equation
Method: Determination of the utility of compounds having Formula (I) as binders to and inhibitors of anti-apoptotic Bcl-2 proteins was performed using the Time Resolved-Fluorescence Resonance Energy Transfer (TR-FRET) Assay. Tb-anti-GST antibody was purchased from Invitrogen (Catalog No. PV4216).
(§1) Representative compounds were serially diluted in dimethyl sulfoxide (DMSO) starting at 50 μM (2× starting concentration; 10% DMSO) and 10 μL were transferred into a 384-well plate. The samples are then mixed on a shaker for 1 minute and incubated for an additional 3 hours at room temperature. For each assay, the probe/antibody and protein/probe/antibody were included on each assay plate as negative and positive controls, respectively. Fluorescence was measured on the Envision (Perkin Elmer) using a 340/35 nm excitation filter and 520/525 (F-Bak peptide) and 495/510 nm (Tb-labeled anti-Histidine antibody) emission filters.
as §1, with “The” for “Representative compounds were serially diluted in dimethyl sulfoxide (DMSO) starting at 50 μM (2× starting concentration; 10% DMSO) and 10 μL were transferred into a 384-well plate. The”, “were” for “are”
The inhibition constant (Ki) is the dissociation constant of an enzyme-inhibitor complex or a protein/small molecule complex, wherein the small molecule is inhibiting binding of one protein to another protein. So a large Ki value indicates a low binding affinity and a small Ki value indicates a high binding affinity.

Sequence of GST-Bcl-2 (P10415 whole entry): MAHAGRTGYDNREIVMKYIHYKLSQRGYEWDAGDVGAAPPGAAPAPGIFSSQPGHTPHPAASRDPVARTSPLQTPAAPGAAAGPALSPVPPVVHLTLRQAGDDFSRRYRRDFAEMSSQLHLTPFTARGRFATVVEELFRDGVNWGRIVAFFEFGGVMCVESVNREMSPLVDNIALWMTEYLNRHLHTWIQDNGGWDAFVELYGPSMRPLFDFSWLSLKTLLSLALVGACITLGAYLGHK

**Q.** How did the Ki turn out when `CC1(C)CCC(CN2CCN(c3ccc(C(=O)NS(=O)(=O)c4ccc(NC5CCN(CCc6ccccc6)CC5)c([N+](=O)[O-])c4)c(Oc4cccc(Cl)c4)c3)CC2)=C(c2ccc(Cl)cc2)C1` [Example 163, 2-(3-chlorophenoxy)-4-(4-{[2-(4-chlorophenyl)-4,4-dimethylcyclohex-1-en-1-yl]methyl}piperazin-1-yl)-N-[(3-nitro-4-{[1-(2-phenylethyl)piperidin-4-yl]amino}phenyl)sulfonyl]benzamide] was run?
**A.** The Ki was 0.686 nM.

**Q.** How did the Ki turn out when `CC1(C)CCC(CN2CCN(c3ccc(C(=O)NS(=O)(=O)c4ccc(NCC5CCOCC5)c([N+](=O)[O-])c4)c(Oc4ccc5[nH]cc(Cl)c5c4)c3)CC2)=C(c2ccc(Cl)cc2)C1` [Example 265, 2-[(3-chloro-1H-indol-5-yl)oxy]-4-(4-{[2-(4-chlorophenyl)-4,4-dimethylcyclohex-1-en-1-yl]methyl}piperazin-1-yl)-N-({3-nitro-4-[(tetrahydro-2H-pyran-4-ylmethyl)amino]phenyl}sulfonyl)benzamide] was run?
**A.** Its Ki is 0.363 nM.

**Q.** For `Cc1cccc(Oc2cc(N3CCN(CC4=C(c5ccc(Cl)cc5)CC(C)(C)CC4)CC3)ccc2C(=O)NS(=O)(=O)c2ccc(NC3CCN(C)CC3)c([N+](=O)[O-])c2)c1` [Example 182, 4-(4-{[2-(4-chlorophenyl)-4,4-dimethylcyclohex-1-en-1-yl]methyl}piperazin-1-yl)-2-(3-methylphenoxy)-N-({4-[(1-methylpiperidin-4-yl)amino]-3-nitrophenyl}sulfonyl)benzamide], which Ki is on record?
**A.** Its Ki is 0.172 nM.

**Q.** With `CC1(C)CCC(CN2CCN(c3ccc(C(=O)NS(=O)(=O)c4ccc(NCC5CCOCC5)c([N+](=O)[O-])c4)c(Oc4cnc(N)c(F)c4)c3)CC2)=C(c2ccc(Cl)cc2)C1` [Example 302, 2-[(6-amino-5-fluoropyridin-3-yl)oxy]-4-(4-{[2-(4-chlorophenyl)-4,4-dimethylcyclohex-1-en-1-yl]methyl}piperazin-1-yl)-N-({3-nitro-4-[(tetrahydro-2H-pyran-4-ylmethyl)amino]phenyl}sulfonyl)benzamide] as the compound, how does the Ki read?
**A.** The Ki was less than 0.01 nM.

**Q.** With “4-(4-{[4-(4-chlorophenyl)-6,6-dimethyl-5,6-dihydro-2H-pyran-3-yl]methyl)}piperazin-1-yl)-2-[(6-fluoro-1H-indol-5-yl)oxy]-N-({4-[(4-fluorotetrahydro-2H-pyran-4-yl)methoxy]-3-nitrophenyl}sulfonyl)benzamide [Example 297]” as the compound, how does the Ki read?
**A.** The Ki was less than 0.01 nM.

**Q.** With `CN1CCC(Nc2ccc(S(=O)(=O)NC(=O)c3ccc(N4CCN(CC5=C(c6ccc(Cl)cc6)CC(C)(C)CC5)CC4)cc3Oc3cc(Cl)cc(Cl)c3)cc2[N+](=O)[O-])CC1` [Example 35, 4-(4-((2-(4-chlorophenyl)-4,4-dimethylcyclohex-1-en-1-yl)methyl)piperazin-1-yl)-2-(3,5-dichlorophenoxy)-N-((4-((1-methylpiperidin-4-yl)amino)-3-nitrophenyl)sulfonyl)benzamide] as the compound, how does the Ki read?
**A.** The Ki was 0.022 nM.

**Q.** How did the Ki turn out when `CC1(C)CCC(CN2CCN(c3ccc(C(=O)NS(=O)(=O)c4ccc(N[C@@H]5CCN(C(CF)CF)C5)c([N+](=O)[O-])c4)c(Oc4cc5cc[nH]c5cc4F)c3)CC2)=C(c2ccc(Cl)cc2)C1` [Example 357, 4-(4-{[2-(4-chlorophenyl)-4,4-dimethylcyclohex-1-en-1-yl]methyl}piperazin-1-yl)-N-{[4-({(3R)-1-[2-fluoro-1-(fluoromethyl)ethyl]pyrrolidin-3-yl}amino)-3-nitrophenyl]sulfonyl}-2-[(6-fluoro-1H-indol-5-yl)oxy]benzamide] was run?
**A.** The Ki was 0.177 nM.

**Q.** Which Ki does the source give for `CC(c1ccccc1-c1ccc(Cl)cc1)N1CCN(c2ccc(C(=O)NS(=O)(=O)c3ccc(NCC4CCOCC4)c([N+](=O)[O-])c3)c(Oc3ccccc3Cl)c2)CC1` (stereo not drawn) [Example 110, 4-{4-[1-(4′-chloro-1,1′-biphenyl-2-yl)ethyl]piperazin-1-yl}-2-(2-chlorophenoxy)-N-({3-nitro-4-[(tetrahydro-2H-pyran-4-ylmethyl)amino]phenyl}sulfonyl)benzamide] here?
**A.** The Ki was 0.039 nM.

**Q.** Which Ki does the source give for `CN(C)CCCNc1ccc(S(=O)(=O)NC(=O)c2ccc(N3CCN(CC4=C(c5ccc(Cl)cc5)CC(C)(C)CC4)CC3)cc2Oc2ccc3c(ccn3C(=O)OC(C)(C)C)c2)cc1[N+](=O)[O-]` [Example 231, tert-butyl 5-[5-(4-{[2-(4-chlorophenyl)-4,4-dimethylcyclohex-1-en-1-yl]methyl}piperazin-1-yl)-2-({[(4-{[3-(dimethylamino)propyl]amino}-3-nitrophenyl)sulfonyl]amino}carbonyl)phenoxy]-1H-indole-1-carboxylate] here?
**A.** The Ki was 36.9 nM.

**Q.** Which Ki does the source give for `CN1CCN(Nc2ccc(S(=O)(=O)NC(=O)c3ccc(N4CCN(CC5=C(c6ccc(Cl)cc6)CC(C)(C)CC5)CC4)cc3Oc3ccc4[nH]cc(CCN)c4c3)cc2[N+](=O)[O-])CC1` [Example 300, 2-{[3-(2-aminoethyl)-1H-indol-5-yl]oxy}-4-(4-{[2-(4-chlorophenyl)-4,4-dimethylcyclohex-1-en-1-yl]methyl}piperazin-1-yl)-N-({4-[(4-methylpiperazin-1-yl)amino]-3-nitrophenyl}sulfonyl)benzamide] here?
**A.** The Ki was 13.7 nM.

**Q.** For `O=C(NS(=O)(=O)c1ccc(NCCCN2CCOCC2)c([N+](=O)[O-])c1)c1ccc(N2CCN(Cc3ccccc3-c3ccc(Cl)cc3)CC2)cc1Oc1cccc(N2CCOCC2)c1` [Example 69, 4-(4-((4′-chloro-1,1′-biphenyl-2-yl)methyl)piperazin-1-yl)-2-(3-morpholin-4-ylphenoxy)-N-((4-((3-morpholin-4-ylpropyl)amino)-3-nitrophenyl)sulfonyl)benzamide], which Ki is on record?
**A.** Its Ki is 8.25 nM.

**Q.** `CC1(C)CCC(CN2CCN(c3ccc(C(=O)NS(=O)(=O)c4ccc(NCC5CCOCC5)c([N+](=O)[O-])c4)c(Oc4ccc(NC(=O)OC(C)(C)C)nc4)c3)CC2)=C(c2ccc(Cl)cc2)C1` [Example 270, tert-butyl 5-(5-(4-{[2-(4-chlorophenyl)-4,4-dimethylcyclohex-1-en-1-yl]methyl}piperazin-1-yl)-2-{[({3-nitro-4-[(tetrahydro-2H-pyran-4-ylmethyl)amino]phenyl}sulfonyl)amino]carbonyl}phenoxy)pyridin-2-ylcarbamate] was tested. Which Ki did it give?
**A.** The Ki was greater than 1200 nM.

**Q.** `CC1(C)CC(c2ccc(Cl)cc2)=C(CN2CCN(c3ccc(C(=O)NS(=O)(=O)c4cnc(OCC5(F)CCOCC5)c(Cl)c4)c(Oc4cc5cc[nH]c5cc4F)c3)CC2)CO1` [Example 388, N-({5-chloro-6-[(4-fluorotetrahydro-2H-pyran-4-yl)methoxy]pyridin-3-yl}sulfonyl)-4-(4-{[4-(4-chlorophenyl)-6,6-dimethyl-5,6-dihydro-2H-pyran-3-yl]methyl}piperazin-1-yl)-2-[(6-fluoro-1H-indol-5-yl)oxy]benzamide] was tested. Which Ki did it give?
**A.** Its Ki is 0.02 nM.

**Q.** With `CN1CCC(Nc2ccc(S(=O)(=O)NC(=O)c3ccc(N4CCN(CC5=C(c6ccc(Cl)cc6)CC(C)(C)CC5)CC4)cc3Oc3cccc(Cl)c3)cc2[N+](=O)[O-])CC1` [Example 36, 2-(3-chlorophenoxy)-4-(4-((2-(4-chlorophenyl)-4,4-dimethylcyclohex-1-en-1-yl)methyl)piperazin-1-yl)-N-((4-((1-methylpiperidin-4-yl)amino)-3-nitrophenyl)sulfonyl)benzamide] as the compound, how does the Ki read?
**A.** The Ki was 0.07 nM.

**Q.** `CN(C)CCCNc1ccc(S(=O)(=O)NC(=O)c2ccc(N3CCN(Cc4ccccc4-c4ccc(Cl)cc4)CC3)cc2Oc2ccccc2Cl)cc1[N+](=O)[O-]` [Example 11, 4-(4-((4′-chloro-1,1′-biphenyl-2-yl)methyl)piperazin-1-yl)-2-(2-chlorophenoxy)-N-((4-((3-(dimethylamino)propyl)amino)-3-nitrophenyl)sulfonyl)benzamide] was tested. Which Ki did it give?
**A.** The Ki was 0.171 nM.

**Q.** With `CC1(C)CCC(CN2CCN(c3ccc(C(=O)NS(=O)(=O)c4cnc(OCC5(F)CCOCC5)c(C#N)c4)c(Oc4cc5cc[nH]c5cc4F)c3)CC2)=C(c2ccc(Cl)cc2)C1` [Example 308, 4-(4-{[2-(4-chlorophenyl)-4,4-dimethylcyclohex-1-en-1-yl]methyl}piperazin-1-yl)-N-({5-cyano-6-[(4-fluorotetrahydro-2H-pyran-4-yl)methoxy]pyridin-3-yl}sulfonyl)-2-[(6-fluoro-1H-indol-5-yl)oxy]benzamide] as the compound, how does the Ki read?
**A.** Its Ki is 0.04 nM.

**Q.** `CC1(C)CCC(CN2CCN(c3ccc(C(=O)NS(=O)(=O)c4ccc(NCC5CCOCC5)c([N+](=O)[O-])c4)c(Oc4cc(N)ncc4Br)c3)CC2)=C(c2ccc(Cl)cc2)C1` [Example 395, 2-[(2-amino-5-bromopyridin-4-yl)oxy]-4-(4-{[2-(4-chlorophenyl)-4,4-dimethylcyclohex-1-en-1-yl]methyl}piperazin-1-yl)-N-({3-nitro-4-[(tetrahydro-2H-pyran-4-ylmethyl)amino]phenyl}sulfonyl)benzamide] was tested. Which Ki did it give?
**A.** The Ki was 0.077 nM.

**Q.** Which Ki does the source give for `CC1(C)CCC(CN2CCN(c3ccc(C(=O)NS(=O)(=O)c4ccc(NC5CCN(Cc6cscn6)CC5)c([N+](=O)[O-])c4)c(Oc4cc5cc[nH]c5cc4F)c3)CC2)=C(c2ccc(Cl)cc2)C1` [Example 245, 4-(4-{[2-(4-chlorophenyl)-4,4-dimethylcyclohex-1-en-1-yl]methyl}piperazin-1-yl)-2-[(6-fluoro-1H-indol-5-yl)oxy]-N-[(3-nitro-4-{[1-(1,3-thiazol-4-ylmethyl)piperidin-4-yl]amino}phenyl)sulfonyl]benzamide] here?
**A.** The Ki was 0.48 nM.
